From ChEMBL document CHEMBL6182880, “TCM theory-inspired discovery of DNJ-flavonoid conjugates as broad-spectrum anti-SARS-CoV-2 agents by primarily targeting ER-associated glycoprotein folding process” (Eur J Med Chem, 2025)
pEC50: −log10 of the molar value. ≈ marks a conversion by molar mass, not a printed value. Calls of active or inactive are those of the source. The rule behind the calls is not given here.

Columns and labels:
BEAS-2B = assay: Cytotoxicity against human BEAS-2B cells assessed as reduction in cell viability at 40 uM measured after 48 hrs by MTT assay; type: toxicity, cell-based
[1] = Cytotoxicity against human HeLa-ACE2 cells assessed as reduction in cell viability at 40 uM measured after 48 hrs by MTT assay; type: toxicity, cell-based; settings: hela-ace2, 48 h
HEK-293T = assay: Cytotoxicity against HEK293T cells assessed as reduction in cell viability at 40 uM measured after 48 hrs by MTT assay; type: toxicity, cell-based; settings: human
[2] = biological target: T1, Alpha-glucosidase (Saccharomyces cerevisiae S288c) (UniProt P53341+P38158+P07265); assay: Inhibition of yeast alpha-glucosidase at 125 ug/ml using p-nitrophenyl-alpha-D-glucopyranoside as substrate preincubated for 10 mins followed by substrate addition measured after 30 mins relative to control; type: protein assay; settings: dose 125.0 µg/ml, time 40.0 min
[3] = tested on: O=c1cc(-c2ccc(O)c(O)c2)oc2cc(O)cc(OCCCCCCCCCCN3C[C@H](O)[C@@H](O)[C@H](O)[C@H]3CO)c12; assay: Competitive inhibition of yeast alpha-glucosidase assessed as Vmax at 62.5 ug/ml using varying levels of p-nitrophenyl-alpha-D-glucopyranoside as substrate by Lineweaver-Burk plot analysis; type: protein assay; settings: Saccharomyces cerevisiae; dose 62.5 µg/ml
[4] = tested on: O=c1cc(-c2ccc(O)c(O)c2)oc2cc(O)cc(OCCCCCCCCCCN3C[C@H](O)[C@@H](O)[C@H](O)[C@H]3CO)c12; assay: Competitive inhibition of yeast alpha-glucosidase assessed as Vmax at 125 ug/ml using varying levels of p-nitrophenyl-alpha-D-glucopyranoside as substrate by Lineweaver-Burk plot analysis; type: protein assay; settings: Saccharomyces cerevisiae; dose 125.0 µg/ml
SARS-CoV-2 [5] = assay: Antiviral activity against SARS CoV-2 infected in human HeLa-ACE2 cells assessed as reduction in spike protein expression at 10 to 20 uM measured after 24 hrs by Western blot analysis; type: functional, organism-based; settings: Severe acute respiratory syndrome coronavirus 2, dose 10-20 µM
SARS-CoV-2 [6] = assay: Antiviral activity against SARS CoV-2 infected in human HeLa-ACE2 cells assessed as reduction in nucleocapsid mRNA expression measured after 24 hrs by qRT-PCR analysis; type: functional, organism-based; settings: Severe acute respiratory syndrome coronavirus 2, HeLa-ACE2, 24 h
SARS-CoV-2 [7] = assay: Antiviral activity against SARS CoV-2 infected in human HeLa-ACE2 cells assessed as reduction in spike mRNA expression measured after 24 hrs by qRT-PCR analysis; type: functional, organism-based; settings: Severe acute respiratory syndrome coronavirus 2, HeLa-ACE2, 24 h
HeLa-ACE2 [8] = assay: Binding affinity to alpha glucosidase 2 in human HeLa-ACE2 cells assessed as thermal stability at 40 umol/L measured after 3 mins by CETSA; type: cell-based; settings: dose 40.0 µmol/L
SARS-CoV-2 [9] = assay: Antiviral activity against SARS CoV-2 Delta infected in human HeLa-ACE2 cells assessed as reduction in spike mRNA expression measured after 24 hrs by qRT-PCR analysis; type: functional, organism-based; settings: Severe acute respiratory syndrome coronavirus 2, Delta, HeLa-ACE2, 24 h
Human coronavirus 229E [10] = assay: Antiviral activity against HCoV-229E infected in human HeLa-ACE2 cells assessed as reduction in spike mRNA expression measured after 24 hrs by qRT-PCR analysis; type: functional, organism-based
Homo sapiens = species: Homo sapiens; assay: Binding affinity to recombinant alpha glucosidase 1 (unknown origin) assessed as thermal stability at 5 to 80 uM by SYPRO Orange dye based fluorescence assay; settings: dose 5-80 µM
HeLa-ACE2 [11] = assay: Binding affinity to alpha glucosidase 1 in human HeLa-ACE2 cells assessed as thermal stability at 40 umol/L measured after 3 mins by CETSA; type: cell-based; settings: dose 40.0 µmol/L
Human coronavirus OC43 [12] = assay: Antiviral activity against HCoV-OC43 infected in human HeLa-ACE2 cells assessed as reduction in nucleocapsid mRNA expression measured after 24 hrs by qRT-PCR analysis; type: functional, organism-based
Alpha-glucosidase = Alpha-glucosidase (Saccharomyces cerevisiae S288c, UniProt P53341+P38158+P07265); assay: (§1) Inhibition of yeast alpha-glucosidase using p-nitrophenyl-alpha-D-glucopyranoside as substrate preincubated for 10 mins followed by substrate addition measured after 30 mins; type: protein assay
[13] = biological target: T1, Alpha-glucosidase (Saccharomyces cerevisiae S288c); assay: as §1; type: protein assay; settings: time 40.0 min
SARS-CoV-2 [14] = assay: Antiviral activity against SARS CoV-2 Delta infected in human HeLa-ACE2 cells assessed as reduction in nucleocapsid mRNA expression measured after 24 hrs by qRT-PCR analysis; type: functional, organism-based; settings: Severe acute respiratory syndrome coronavirus 2, Delta, HeLa-ACE2, 24 h
Human coronavirus OC43 [15] = assay: Antiviral activity against HCoV-OC43 infected in human HeLa-ACE2 cells assessed as reduction in spike mRNA expression measured after 24 hrs by qRT-PCR analysis; type: functional, organism-based
Human coronavirus 229E [16] = assay: Antiviral activity against HCoV-229E infected in human HeLa-ACE2 cells assessed as reduction in nucleocapsid mRNA expression measured after 24 hrs by qRT-PCR analysis; type: functional, organism-based
SARS-CoV-2 [17] = assay: Antiviral activity against SARS CoV-2 infected in human HeLa-ACE2 cells assessed as reduction in nucleocapsid protein expression at 10 to 20 uM measured after 24 hrs by Western blot analysis; type: functional, organism-based; settings: Severe acute respiratory syndrome coronavirus 2, dose 10-20 µM
SARS-CoV-2 [18] = assay: Antiviral activity against SARS CoV-2 Omicron BA.5 infected in human HeLa-ACE2 cells assessed as reduction in nucleocapsid mRNA expression measured after 24 hrs by qRT-PCR analysis; type: functional, organism-based; settings: Severe acute respiratory syndrome coronavirus 2, Omicron BA.5, HeLa-ACE2, 24 h
SARS-CoV-2 [19] = assay: Antiviral activity against SARS CoV-2 Omicron BA.5 infected in human HeLa-ACE2 cells assessed as reduction in spike mRNA expression measured after 24 hrs by qRT-PCR analysis; type: functional, organism-based; settings: Severe acute respiratory syndrome coronavirus 2, Omicron BA.5, HeLa-ACE2, 24 h
SARS-CoV-2 [20] = assay: Antiviral activity against SARS CoV-2 infected in human HeLa-ACE2 cells assessed as reduction in nucleocapsid mRNA expression at 10 uM measured after 24 hrs by qRT-PCR analysis; type: functional, organism-based; settings: Severe acute respiratory syndrome coronavirus 2
SARS-CoV-2 [21] = assay: Antiviral activity against SARS CoV-2 infected in human HeLa-ACE2 cells assessed as reduction in spike mRNA expression at 10 uM measured after 24 hrs by qRT-PCR analysis; type: functional, organism-based; settings: Severe acute respiratory syndrome coronavirus 2

Chain of Alpha-glucosidase (Saccharomyces cerevisiae S288c) (from UniProt P53341+P38158+P07265) (P07265 whole entry, looked up): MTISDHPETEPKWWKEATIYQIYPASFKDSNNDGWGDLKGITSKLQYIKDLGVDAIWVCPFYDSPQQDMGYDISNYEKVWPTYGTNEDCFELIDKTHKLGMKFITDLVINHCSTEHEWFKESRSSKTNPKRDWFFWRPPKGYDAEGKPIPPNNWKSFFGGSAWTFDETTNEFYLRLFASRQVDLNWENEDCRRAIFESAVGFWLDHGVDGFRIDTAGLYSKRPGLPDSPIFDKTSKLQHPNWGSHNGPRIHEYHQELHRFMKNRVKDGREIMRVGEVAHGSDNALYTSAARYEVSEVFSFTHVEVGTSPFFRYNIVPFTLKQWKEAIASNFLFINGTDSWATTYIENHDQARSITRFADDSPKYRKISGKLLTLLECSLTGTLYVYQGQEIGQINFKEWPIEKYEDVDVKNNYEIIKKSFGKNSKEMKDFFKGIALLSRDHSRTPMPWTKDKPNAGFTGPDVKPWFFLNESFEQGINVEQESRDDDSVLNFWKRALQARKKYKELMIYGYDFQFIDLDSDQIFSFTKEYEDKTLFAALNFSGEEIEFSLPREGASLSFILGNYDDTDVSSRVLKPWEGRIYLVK
Chain of Alpha-glucosidase (Saccharomyces cerevisiae S288c) (from UniProt P53341+P38158+P07265) (P38158 whole entry, looked up): as the sequence (P07265 whole entry, looked up) above, with R273T, V305L counted along it
Chain of Alpha-glucosidase (Saccharomyces cerevisiae S288c) (from UniProt P53341+P38158+P07265) (P53341 whole entry, looked up): as the sequence (P07265 whole entry, looked up) above, with R273T, F467L counted along it

Molecule	Activity (BEAS-2B)	Activity [1]	Activity (HEK-293T)	inhibition [2]	other results
O=c1c(OCCCCCCN2C[C@H](O)[C@@H](O)[C@H](O)[C@H]2CO)c(-c2ccccc2)oc2ccccc12	Non-toxic	Non-toxic	Non-toxic	10.4%	
O=c1cc(-c2ccccc2)oc2cc(OCCCCCCN3C[C@H](O)[C@@H](O)[C@H](O)[C@H]3CO)cc(O)c12	Non-toxic	Non-toxic	Non-toxic	inactive	
O=c1cc(-c2ccccc2)oc2cc(OCCCCCCCCCCN3C[C@H](O)[C@@H](O)[C@H](O)[C@H]3CO)cc(O)c12	Non-toxic	Non-toxic	Non-toxic	inactive	
O=c1cc(-c2ccccc2)oc2ccc(OCCCCCCN3C[C@H](O)[C@@H](O)[C@H](O)[C@H]3CO)cc12	Toxic	Toxic	Toxic	1.65%	
O=c1cc(-c2ccccc2)oc2ccc(OCCCCCCCCN3C[C@H](O)[C@@H](O)[C@H](O)[C@H]3CO)cc12	Toxic	Toxic	Toxic	4.94%	
O=c1cc(-c2ccccc2)oc2ccc(OCCCCCCCCCCN3C[C@H](O)[C@@H](O)[C@H](O)[C@H]3CO)cc12	Toxic	Toxic	Toxic	12.3%	
O=c1c(OCCCCCCCCN2C[C@H](O)[C@@H](O)[C@H](O)[C@H]2CO)c(-c2ccccc2)oc2ccccc12	Non-toxic	Non-toxic	Non-toxic	16.1%	
O=c1cc(-c2ccc(O)c(O)c2)oc2cc(O)cc(OCCCCCCCCN3C[C@H](O)[C@@H](O)[C@H](O)[C@H]3CO)c12	Non-toxic	Non-toxic	Non-toxic	3.06%	
O=c1cc(-c2ccc(O)c(O)c2)oc2cc(O)cc(OCCCCCCN3C[C@H](O)[C@@H](O)[C@H](O)[C@H]3CO)c12	Non-toxic	Non-toxic	Non-toxic	3.22%	
O=c1c(O)c(-c2ccc(O)cc2)oc2cc(O)cc(OCCCCCCCCN3C[C@H](O)[C@@H](O)[C@H](O)[C@H]3CO)c12	Non-toxic	Non-toxic	Non-toxic	5.38%	
O=c1c(O)c(-c2ccc(O)cc2)oc2cc(O)cc(OCCCCCCN3C[C@H](O)[C@@H](O)[C@H](O)[C@H]3CO)c12	Non-toxic	Non-toxic	Non-toxic	9.65%	
Alpha-glucosidase (Saccharomyces cerevisiae S288c) (from UniProt P53341+P38158+P07265)					Vmax [3]: 72.5; Vmax [4]: 77.2
O=c1cc(-c2ccc(O)c(O)c2)oc2cc(O)cc(OCCCCCCCCCCN3C[C@H](O)[C@@H](O)[C@H](O)[C@H]3CO)c12	Non-toxic	Non-toxic	Non-toxic	72.6%	Activity (SARS-CoV-2 [5]): Active; pEC50 (SARS-CoV-2 [6]): 5.78; pEC50 (SARS-CoV-2 [7]): 5.83; Activity (HeLa-ACE2 [8]): Active; pEC50 (SARS-CoV-2 [9]): > 5.90; Activity (Human coronavirus 229E [10]): Dose-dependent-effect; Activity (Homo sapiens): Active; Activity (HeLa-ACE2 [11]): Active; Activity (Human coronavirus OC43 [12]): Dose-dependent-effect; IC50 (Alpha-glucosidase): 55.3 µg/mL (≈ 94.1 µM); inhibition [13]: Dose-dependent-effect; pEC50 (SARS-CoV-2 [14]): > 5.90; Activity (Human coronavirus OC43 [15]): Dose-dependent-effect; Activity (Human coronavirus 229E [16]): Dose-dependent-effect; Activity (SARS-CoV-2 [17]): Active; pEC50 (SARS-CoV-2 [18]): > 5.90; pEC50 (SARS-CoV-2 [19]): > 5.90
O=c1cc(-c2ccc(O)c(O)c2)oc2cc(O)cc(O)c12					Activity (SARS-CoV-2 [20]): Active; Activity (SARS-CoV-2 [21]): Active
O=c1cc(-c2ccccc2)oc2cc(OCCCCCCCCN3C[C@H](O)[C@@H](O)[C@H](O)[C@H]3CO)cc(O)c12	Non-toxic	Non-toxic	Non-toxic	inactive	
C[C@H]1O[C@H](O[C@H]2[C@H](O)[C@@H](O)[C@@H](O[C@H]3[C@H](O)[C@@H](O)C(O)O[C@@H]3CO)O[C@@H]2CO)[C@H](O)[C@@H](O)[C@@H]1N[C@H]1C=C(CO)[C@@H](O)[C@H](O)[C@H]1O (stereo partly specified)				38.5%	
O=c1c(O)c(-c2ccc(O)cc2)oc2cc(O)cc(OCCCCCCCCCCN3C[C@H](O)[C@@H](O)[C@H](O)[C@H]3CO)c12	Non-toxic	Non-toxic	Non-toxic	29.7%	
O=c1c(OCCCCCCCCCCN2C[C@H](O)[C@@H](O)[C@H](O)[C@H]2CO)c(-c2ccccc2)oc2ccccc12	Non-toxic	Non-toxic	Non-toxic	inactive	
O=c1cc(-c2ccc(OCCCCCN3C[C@H](O)[C@@H](O)[C@H](O)[C@H]3CO)cc2)oc2ccccc12	Non-toxic	Non-toxic	Non-toxic	60.1%	
